Results from US20250121013A1, “USE OF BACILLUS AMYLOLIQUEFACIENS FOR PREVENTING AND TREATING PARKINSON'S DISEASE” (Artugen Therapeutics Ltd., priority 2021, published 2025).
Values after ≈ are worked out from the molar mass of the structure shown.

Legend:
ART24 [1] = assay: Antibiotic susceptibility of ART24 lots and cell banks, MIC following EFSA testing recommendations (Table 3); format: cell-based, Bacillus amyloliquefaciens; conditions: for MIC: Bacillus amyloliquefaciens
Experimental: The minimum inhibitory concentration (MIC) of the listed antimicrobials is expressed as μg/mL. Additional studies following EFSA testing recommendations were performed on lyophilized ART24 lots CO-33-10A2 and CO-33-12A2 and Research and Master Cell Banks CO-33-ART24 BHI and CO-33-ART24 SYD, and those results are shown in Table 3.

ART24 [2] = assay: Antibiotic susceptibility of ART24, MIC, VetMIC panels (Table 2); format: cell-based, Bacillus amyloliquefaciens; conditions: for MIC: Bacillus amyloliquefaciens, read-out: ART24 MIC
Experimental: The minimum inhibitory concentration (MIC) of the listed antimicrobials is expressed as μg/mL. […] The wells of the prefabricated 96-well plates were filled with 100 μL of the final suspension. The plates were sealed with an […], Sigma Aldrich) sealing film (to facilitate growth of the aerobic Bacillus. The plates were then incubated for 24 hr at 37° C. The results are recorded after 24 hours as the lowest concentration of the antibiotic to inhibit visible growth. The prefabricated panels […], Uppsala, Sweden) comprising the antibiotics ampicillin, vancomycin, gentamicin, kanamycin, streptomycin, erythromycin, clindamycin, tetracycline, chloramphenicol, neomycin, penicillin, quinupristin-dalfopristin, linezolid, trimethoprim, ciprofloxacin and rifampicin were used.

[3] = ART24 source: cell bank CO-33 ART 24 BHI, read-out: MIC, CO-33 ART 24 BHI
[4] = ART24 source: cell bank CO-33 ART 024 SYD, read-out: MIC, CO-33 ART 024 SYD
[5] = ART24 source: lyophilized lot CO-33-10A2, read-out: MIC, CO-33-10A2
[6] = ART24 source: lyophilized lot CO-33-12A2, read-out: MIC, CO-33-12A2
[7] = ART24 source: cell bank CO-33 ART 24 BHI
[8] = ART24 source: cell bank CO-33 ART 024 SYD
[9] = ART24 source: lyophilized lot CO-33-10A2
[10] = ART24 source: lyophilized lot CO-33-12A2
[11] = 24 hr at 37° C., average results from N = 6

| Compound | MIC (ART24 [1]; [3]) | MIC (ART24 [1]; [4]) | MIC (ART24 [1]; [5]) | MIC (ART24 [1]; [6]) | MIC interpretation, CO-33 ART 24 BHI (ART24 [1]; [7]) | MIC interpretation, CO-33 ART 024 SYD (ART24 [1]; [8]) | MIC interpretation, CO-33-10A2 (ART24 [1]; [9]) | MIC interpretation, CO-33-12A2 (ART24 [1]; [10]) | MIC (ART24 [2]; [11]) | further results |
| --- | --- | --- | --- | --- | --- | --- | --- | --- | --- | --- |
| CCc1c(Cl)c(O)c(Cl)c(O)c1C(=O)O[C@H]1[C@H](O)[C@H](OC)[C@H](OC/C2=C\C=C\C[C@H](O)/C(C)=C/[C@H](CC)[C@@H](O[C@@H]3OC(C)(C)[C@@H](OC(=O)C(C)C)[C@H](O)[C@@H]3O)/C(C)=C/C(C)=C/C[C@@H]([C@@H](C)O)OC2=O)O[C@@H]1C [Fidaxomicin] | 4 µg/mL (≈ 3.78 µM) | 4 µg/mL (≈ 3.78 µM) | 2 µg/mL (≈ 1.89 µM) | 4 µg/mL (≈ 3.78 µM) |  |  |  |  |  |  |
| CN[C@H](CC(C)C)C(=O)N[C@H]1C(=O)N[C@@H](CC(N)=O)C(=O)N[C@H]2C(=O)N[C@H]3C(=O)N[C@H](C(=O)N[C@H](C(=O)O)c4cc(O)cc(O)c4-c4cc3ccc4O)[C@H](O)c3ccc(c(Cl)c3)Oc3cc2cc(c3O[C@@H]2O[C@H](CO)[C@@H](O)[C@H](O)[C@H]2O[C@H]2C[C@](C)(N)[C@H](O)[C@H](C)O2)Oc2ccc(cc2Cl)[C@H]1O [Vancomycin] |  |  |  |  | S | S | S | S |  | MIC (ART24 [2]; 24 h): 0.5 to 1 µg/mL (≈ 0.345 to 0.69 µM); MIC (ART24 [1]; read-out: MIC, CO-33-10A2): ≤ 0.25 µg/mL; MIC (ART24 [1]; read-out: MIC, CO-33-12A2): ≤ 0.25 µg/mL; MIC (ART24 [1]; read-out: MIC, CO-33 ART 24 BHI): 0.5 µg/mL (≈ 0.345 µM); MIC (ART24 [1]; read-out: MIC, CO-33 ART 024 SYD): ≤ 0.25 µg/mL |
| CC1(C)S[C@@H]2[C@H](NC(=O)[C@H](N)c3ccccc3)C(=O)N2[C@H]1C(=O)O [Ampicillin] | ≤ 0.03 µg/mL | ≤ 0.03 µg/mL | ≤ 0.03 µg/mL | ≤ 0.03 µg/mL | S | S | S | S | 0.25 µg/mL (≈ 0.715 µM) |  |
| Gentamicin |  |  |  |  | S | S | S | S |  | ART24 MIC (ART24 [2]; [11]): ≤0.5 µg/mL; MIC, CO-33 ART 24 BHI (ART24 [1]; [7]): ≤ 0.06 µg/mL; MIC, CO-33 ART 024 SYD (ART24 [1]; [8]): ≤ 0.06 µg/mL; MIC, CO-33-10A2 (ART24 [1]; [9]): ≤ 0.06 µg/mL; MIC, CO-33-12A2 (ART24 [1]; [10]): ≤ 0.06 µg/mL |
| CCC[C@@H]1C[C@@H](C(=O)N[C@@H]([C@H]2O[C@H](SC)[C@H](O)[C@@H](O)[C@H]2O)[C@H](C)Cl)N(C)C1 [Clindamycin] | 0.25 µg/mL (≈ 0.588 µM) | 0.25 µg/mL (≈ 0.588 µM) | 0.12 µg/mL (≈ 0.282 µM) | 0.25 µg/mL (≈ 0.588 µM) | S | S | S | S | 0.5 to 1 µg/mL (≈ 1.18 to 2.35 µM) |  |
| CO[C@H]1/C=C/O[C@@]2(C)Oc3c(C)c(O)c4c(O)c(c(/C=N/N5CCN(C)CC5)c(O)c4c3C2=O)NC(=O)/C(C)=C\C=C\[C@H](C)[C@H](O)[C@@H](C)[C@@H](O)[C@@H](C)[C@H](OC(C)=O)[C@@H]1C [Rifampicin] | 0.25 µg/mL (≈ 0.304 µM) | 0.25 µg/mL (≈ 0.304 µM) | 0.25 µg/mL (≈ 0.304 µM) | 0.25 µg/mL (≈ 0.304 µM) | S | S | S | S | 0.5 µg/mL (≈ 0.608 µM) |  |
| O=C(N[C@H](CO)[C@H](O)c1ccc([N+](=O)[O-])cc1)C(Cl)Cl [Chloramphenicol] | 2 µg/mL (≈ 6.19 µM) | 2 µg/mL (≈ 6.19 µM) | 2 µg/mL (≈ 6.19 µM) | 2 µg/mL (≈ 6.19 µM) | S | S | S | S | 4 µg/mL (≈ 12.4 µM) |  |
| COc1cc(Cc2cnc(N)nc2N)cc(OC)c1OC [Trimethoprim] | ≤ 0.25 µg/mL | ≤ 0.25 µg/mL | ≤ 0.25 µg/mL | ≤ 0.25 µg/mL |  |  |  |  | ≤ 0.12 µg/mL |  |
| Neomycin |  |  |  |  |  |  |  |  |  | ART24 MIC (ART24 [2]; [11]): ≤0.5 µg/mL; MIC, CO-33 ART 24 BHI (ART24 [1]; [7]): ≤0.12 µg/mL; MIC, CO-33 ART 024 SYD (ART24 [1]; [8]): ≤0.12 µg/mL; MIC, CO-33-10A2 (ART24 [1]; [9]): ≤0.12 µg/mL; MIC, CO-33-12A2 (ART24 [1]; [10]): ≤0.12 µg/mL |
| [H]/N=C(/N)N[C@H]1[C@H](O)[C@@H](O)[C@H](O[C@@H]2O[C@@H](C)[C@](O)(C=O)[C@H]2O[C@@H]2O[C@@H](CO)[C@H](O)[C@@H](O)[C@@H]2NC)[C@@H](N/C(N)=N\[H])[C@@H]1O [Streptomycin] | 1 µg/mL (≈ 1.72 µM) | 2 µg/mL (≈ 3.44 µM) | 1 µg/mL (≈ 1.72 µM) | 1 µg/mL (≈ 1.72 µM) | S | S | S | S | 4 µg/mL (≈ 6.88 µM) |  |
| NC[C@H]1O[C@H](O[C@H]2[C@H](O)[C@@H](O[C@H]3O[C@H](CO)[C@@H](O)[C@H](N)[C@H]3O)[C@H](N)C[C@@H]2N)[C@H](O)[C@@H](O)[C@@H]1O [Kanamycin] | ≤ 0.5 µg/mL | ≤ 0.5 µg/mL | ≤ 0.5 µg/mL | ≤ 0.5 µg/mL | S | S | S | S | ≤ 2 µg/mL |  |
| CC[C@H]1OC(=O)[C@H](C)[C@@H](O[C@H]2C[C@@](C)(OC)[C@@H](O)[C@H](C)O2)[C@H](C)[C@@H](O[C@@H]2O[C@H](C)C[C@H](N(C)C)[C@H]2O)[C@](C)(O)C[C@@H](C)C(=O)[C@H](C)[C@@H](O)[C@]1(C)O [Erythromycin] | 0.12 µg/mL (≈ 0.164 µM) | 0.12 µg/mL (≈ 0.164 µM) | 0.06 µg/mL (≈ 0.0818 µM) | 0.06 µg/mL (≈ 0.0818 µM) | S | S | S | S | 0.12 µg/mL (≈ 0.164 µM) |  |
| Quinupristin-dalfopristin |  |  |  |  |  |  |  |  |  | ART24 MIC (ART24 [2]; [11]): 4 µg/mL; MIC, CO-33 ART 24 BHI (ART24 [1]; [7]): 2 µg/mL; MIC, CO-33 ART 024 SYD (ART24 [1]; [8]): 2 µg/mL; MIC, CO-33-10A2 (ART24 [1]; [9]): 1 µg/mL; MIC, CO-33-12A2 (ART24 [1]; [10]): 2 µg/mL |
| CC(=O)NC[C@H]1CN(c2ccc(N3CCOCC3)c(F)c2)C(=O)O1 [Linezolid] | 0.5 µg/mL (≈ 1.48 µM) | 0.5 µg/mL (≈ 1.48 µM) | 0.25 µg/mL (≈ 0.741 µM) | 0.5 µg/mL (≈ 1.48 µM) |  |  |  |  | 0.5 µg/mL (≈ 1.48 µM) |  |
| Cc1ncc([N+](=O)[O-])n1CCO [Metronidazole] |  |  |  |  |  |  |  |  |  | MIC (ART24 [1]; aerobic, ART24 source CO-33-10A2, read-out: MIC, CO-33-10A2 (aerobic)): > 64 µg/mL; MIC (ART24 [1]; aerobic, ART24 source CO-33-12A2, read-out: MIC, CO-33-12A2 (aerobic)): > 64 µg/mL; MIC (ART24 [1]; aerobic, ART24 source CO-33 ART 24 BHI, read-out: MIC, CO-33 ART 24 BHI (aerobic)): > 64 µg/mL; MIC (ART24 [1]; aerobic, ART24 source CO-33 ART 024 SYD, read-out: MIC, CO-33 ART 024 SYD (aerobic)): > 64 µg/mL; MIC (ART24 [1]; anaerobic, ART24 source CO-33-10A2, read-out: MIC, CO-33-10A2 (anaerobic)): 64 µg/mL (≈ 374 µM); MIC (ART24 [1]; anaerobic, ART24 source CO-33-12A2, read-out: MIC, CO-33-12A2 (anaerobic)): 64 µg/mL (≈ 374 µM); MIC (ART24 [1]; anaerobic, ART24 source CO-33 ART 24 BHI, read-out: MIC, CO-33 ART 24 BHI (anaerobic)): 64 µg/mL (≈ 374 µM); MIC (ART24 [1]; anaerobic, ART24 source CO-33 ART 024 SYD, read-out: MIC, CO-33 ART 024 SYD (anaerobic)): 64 µg/mL (≈ 374 µM) |
| Penicillin |  |  |  |  | S | S | S | S |  | ART24 MIC (ART24 [2]; [11]): 0.12 to 0.5 µg/mL; MIC, CO-33 ART 24 BHI (ART24 [1]; [7]): ≤ 0.03 µg/mL; MIC, CO-33 ART 024 SYD (ART24 [1]; [8]): 0.06 µg/mL; MIC, CO-33-10A2 (ART24 [1]; [9]): ≤ 0.03 µg/mL; MIC, CO-33-12A2 (ART24 [1]; [10]): ≤ 0.03 µg/mL |
| CN(C)[C@@H]1C(O)=C(C(N)=O)C(=O)[C@@]2(O)C(O)=C3C(=O)c4c(O)cccc4[C@@](C)(O)[C@H]3C[C@@H]12 [Tetracycline] | 2 µg/mL (≈ 4.5 µM) | 2 µg/mL (≈ 4.5 µM) | 2 µg/mL (≈ 4.5 µM) | 2 µg/mL (≈ 4.5 µM) | S | S | S | S | 4 µg/mL (≈ 9 µM) |  |
| O=C(O)c1cn(C2CC2)c2cc(N3CCNCC3)c(F)cc2c1=O [Ciprofloxacin] | ≤ 0.03 µg/mL | ≤ 0.03 µg/mL | ≤ 0.03 µg/mL | ≤ 0.03 µg/mL | S | S | S | S | ≤ 0.25 µg/mL |  |
